Data from ChEMBL document CHEMBL4265947, “Conformation impacts on the bioactivities of SMART analogues” (Eur J Med Chem, 2018).

Legend:
HT-1080 = test: Antiproliferative activity against human HT1080 cells after 72 hrs by MTT assay; type: functional, cell-based; details: HT-1080, 72 h
SGC-7901 = test: Antiproliferative activity against human SGC7901 cells after 72 hrs by MTT assay; type: functional, cell-based; details: SGC-7901, 72 h
A549 = test: Antiproliferative activity against human A549 cells after 72 hrs by MTT assay; type: functional, cell-based; details: A549, 72 h
[1] = (§1) Inhibition of porcine tubulin polymerization preincubated for 1 min and measured for 82 mins by fluorescence assay; parameters: species or system Sus scrofa
L929 = test: Antiproliferative activity against mouse L929 cells after 72 hrs by MTT assay; type: cell-based; details: L929, 72 h
[2] = Selectivity index, ratio of IC50 for mouse L929 cells to IC50 for human A549 cells; type: toxicity; details: L929 cells versus A549 cells, read-out: Ratio IC50
[3] = Selectivity index, ratio of IC50 for mouse L929 cells to IC50 for human HT1080 cells; type: toxicity; details: L929 cells versus HT1080 cells, read-out: Ratio IC50
[4] = Selectivity index, ratio of IC50 for mouse L929 cells to IC50 for human SGC7901 cells; type: toxicity; details: L929 cells versus SGC7901 cells, read-out: Ratio IC50
Sus scrofa = species: Sus scrofa; test: as §1

SMILES | IC50 (HT-1080) | IC50 (SGC-7901) | IC50 (A549) | IC50 [1] | IC50 (L929) | selectivity ratio [2] | selectivity ratio [3] | selectivity ratio [4] | inhibition (Sus scrofa)
COc1cc(C(=O)c2csc(-c3ccccc3)n2)cc(OC)c1OC | 150 nM |  |  |  |  |  |  |  | 
COc1cc(C(=O)c2nnc(-c3ccc(C)cc3)o2)cc(OC)c1OC | > 100000 nM | 6770 nM | 15300 nM |  |  |  |  |  | 
COc1cc(C(=O)c2nnc(-c3ccc(C)cc3)s2)cc(OC)c1OC | > 100000 nM | > 100000 nM | 35300 nM | > 100000 nM |  |  |  |  | 
COc1ccc(/C=C\c2cc(OC)c(OC)c(OC)c2)cc1O [COMBRETASTATIN A4] |  | 12 nM | 16 nM |  | 820 nM |  |  |  | 
COc1cc(C(=O)c2nc(-c3ccc(C)cc3)n[nH]2)cc(OC)c1OC | 650 nM | 380 nM | 1070 nM | 7710 nM | 42600 nM | 39.8 | 65.5 | 112 | Dose-dependent effect
COc1cc2c(c(OC)c1OC)-c1ccc(OC)c(=O)cc1[C@@H](NC(C)=O)CC2 [COLCHICINE] | 42 nM | 134 nM | 137 nM |  | 1010 nM | 7.4 | 24 | 7.5 | 
